In US3983105A, “Penicillins” (Bayer Aktiengesellschaft, priority 1971, dated 1976):
Like-named read-outs stand apart in the source and are kept apart here.

Experiments:
Pseudomonas aeruginosa = assay: MIC, test tube serial dilution, Pseudomonas aeruginosa; format: cell-based
Klebsiella-Aerobacter [1] = assay: MIC, test tube serial dilution, Klebsiella-Aerobacter; format: cell-based
Escherichia coli = assay: MIC, test tube serial dilution, Escherichia coli; format: cell-based
Proteus vulgaris = assay: MIC, test tube serial dilution, Proteus vulgaris; format: cell-based
Staphylococcus aureus = assay: MIC, test tube serial dilution, Staphylococcus aureus; format: cell-based
Klebsiella-Aerobacter [2] = details: in vivo; cited from earlier work
Serratia marcescens = assay: MIC, test tube serial dilution, Serratia marcescens; format: cell-based
Providencia = assay: MIC, test tube serial dilution, Providencia; format: cell-based
Proteus rettgeri = assay: MIC, test tube serial dilution, Proteus rettgeri; format: cell-based
Proteus mirabilis = assay: MIC, test tube serial dilution, Proteus mirabilis; format: cell-based
Proteus morganii = assay: MIC, test tube serial dilution, Proteus morganii; format: cell-based
Haemophilus influenzae = assay: MIC, test tube serial dilution, Haemophilus influenzae; format: cell-based
Streptococcus faecalis = assay: MIC, test tube serial dilution, Streptococcus faecalis; format: cell-based

For `CC1(C)S[C@@H]2[C@H](NC(=O)[C@H](N)c3ccccc3)C(=O)N2[C@H]1C(=O)O` [Ampicillin, α-aminobenzylpenicillin, reference compound], the MIC (Pseudomonas aeruginosa; Table 3, strain Walter) was 200 U/ml, the MIC (Pseudomonas aeruginosa; strain Bonn, 24 hours, 37°C) was 200 U/ml and the MIC (Pseudomonas aeruginosa; strain Walter, 24 hours, 37°C) was 200 U/ml. For the same molecule, the MIC (Klebsiella-Aerobacter [1]; Table 3, strain 63) was 100-200 U/ml, the MIC (Klebsiella-Aerobacter [1]; Table 3, strain K 10) was 100-200 U/ml and the MIC (Escherichia coli; Table 3, strain 183/58) was 200 U/ml. It also gave an MIC (Escherichia coli; Table 3, strain A 261) greater than 400 U/ml, an MIC (Escherichia coli; Table 3, strain C 165) of 6 U/ml and an MIC (Escherichia coli; strain 183/58, 24 hours, 37°C) of 200 U/ml. It also gave an MIC (Escherichia coli; strain A 261, 24 hours, 37°C) greater than 400 U/ml, an MIC (Proteus vulgaris; Table 3, strain 1017) of 400 U/ml and an MIC (Proteus vulgaris; strain 1017, 24 hours, 37°C) of 400 U/ml. The MIC (Staphylococcus aureus; Table 3, strain 133) was less than 1 U/ml and the effectiveness against infections (Klebsiella-Aerobacter [2]) was “not able to combat infections”.

For `CC1(C)S[C@@H]2[C@H](NC(=O)[C@H](NC(=O)N3CCN(S(C)(=O)=O)C3=O)c3ccccc3)C(=O)N2[C@H]1C(=O)O` [Example 4, Sodium D(-)-α-[(3-methylsulphonyl-imidazolidin-2-on-1-yl)-carbonylamino]-benzylpencillin], the MIC (Pseudomonas aeruginosa; strain A) was 12.5 U/ml, the MIC (Pseudomonas aeruginosa; strain Bonn, 24 hours, 37°C) was 16 - 32 U/ml and the MIC (Pseudomonas aeruginosa; strain E 27 500) was 12.5 U/ml. For the same molecule, the MIC (Pseudomonas aeruginosa; strain V 10 797) was 12.5 U/ml, the MIC (Pseudomonas aeruginosa; strain V 10 818) was 25 U/ml and the MIC (Pseudomonas aeruginosa; strain V 10 887) was 12.5 U/ml. For the same molecule, the MIC (Pseudomonas aeruginosa; strain V 10 900) was 12.5 U/ml, the MIC (Pseudomonas aeruginosa; strain Walter, 24 hours, 37°C) was 4-16 U/ml and the MIC (Klebsiella-Aerobacter [1]) was less than 0.8 U/ml. The MIC (Klebsiella-Aerobacter [1]; aerogenes 418) was 3 U/ml, the MIC (Klebsiella-Aerobacter [1]; strain 62) was 1.6 U/ml and the MIC (Klebsiella-Aerobacter [1]; strain 63, 24 hours, 37°C) was 4 - 16 U/ml. It also gave an MIC (Klebsiella-Aerobacter [1]; strain 69) of 1.6 U/ml, an MIC (Klebsiella-Aerobacter [1]; strain 70) of 3 U/ml and an MIC (Klebsiella-Aerobacter [1]; strain 75) of 6 U/ml. For the same molecule, the MIC (Klebsiella-Aerobacter [1]; strain 1852) was greater than 400 U/ml, the MIC (Klebsiella-Aerobacter [1]; strain 1871) was 6 U/ml and the MIC (Klebsiella-Aerobacter [1]; strain K 10, 24 hours, 37°C) was 4 - 16 U/ml. The MIC (Escherichia coli; strain 26/6) was less than 0.8 U/ml, the MIC (Escherichia coli; strain 55 B 5) was less than 0.8 U/ml and the MIC (Escherichia coli; strain 183/58, 24 hours, 37°C) was 1 - 4 U/ml. The MIC (Escherichia coli; strain 1465) was greater than 400 U/ml, the MIC (Escherichia coli; strain A 261, 24 hours, 37°C) was 32 - 64 U/ml and the MIC (Escherichia coli; strain B) was less than 0.8 U/ml. For the same molecule, the MIC (Escherichia coli; strain B 94) was less than 0.8 U/ml, the MIC (Escherichia coli; strain C 165, 24 hours, 37°C) was 1 - 4 U/ml and the MIC (Escherichia coli; strain N) was 1.6 U/ml. For the same molecule, the MIC (Escherichia coli; strain S) was 32 U/ml, the MIC (Escherichia coli; strain T 7) was greater than 400 U/ml and the MIC (Escherichia coli; strain T 20/2) was greater than 400 U/ml. It also gave an MIC (Serratia marcescens; strain 2) of 1.6 U/ml, an MIC (Serratia marcescens; strain 3) of 12.5 U/ml and an MIC (Serratia marcescens; strain 4) of 1.6 U/ml. The MIC (Serratia marcescens; strain 6) was 1.6 U/ml, the MIC (Serratia marcescens; strain 7) was 1.6 U/ml and the MIC (Serratia marcescens; strain 9) was less than 0.8 U/ml. The MIC (Serratia marcescens; strain 13) was less than 0.8 U/ml, the MIC (Serratia marcescens; strain K) was less than 0.8 U/ml and the MIC (Providencia; strain 930) was less than 0.8 U/ml. It also gave an MIC (Providencia; strain 933) of 12.5 U/ml, an MIC (Providencia; strain 945) of less than 0.8 U/ml and an MIC (Proteus rettgeri; Sp.) of 0.8 U/ml. For the same molecule, the MIC (Proteus rettgeri; strain 1 050) was greater than 400 U/ml, the MIC (Proteus rettgeri; strain 824) was greater than 400 U/ml and the MIC (Proteus mirabilis; Sp.) was 1.6 U/ml. It also gave an MIC (Proteus mirabilis; strain 1 235) of 1.6 U/ml, an MIC (Proteus mirabilis; strain 605) of 3 U/ml and an MIC (Proteus mirabilis; strain G.) of less than 0.4 U/ml. For the same molecule, the MIC (Proteus morganii; Sp.) was 3 U/ml, the MIC (Proteus morganii; strain 1 102) was 200 U/ml and the MIC (Proteus vulgaris; strain 3 400) was 6 U/ml. It also gave an MIC (Proteus vulgaris; strain 1017, 24 hours, 37°C) of 1.6 U/ml, an MIC (Haemophilus influenzae; strain 2 684) of 0.1 U/ml and an MIC (Haemophilus influenzae; strain 2 689) of 0.25 U/ml. For the same molecule, the MIC (Haemophilus influenzae; strain 2 718) was 0.1 U/ml, the MIC (Haemophilus influenzae; strain 2 786) was 0.06 U/ml and the MIC (Haemophilus influenzae; strain 2 788) was 0.5 U/ml. For the same molecule, the MIC (Streptococcus faecalis; ATCC 9790, 24 hours, 37°C) was 16-32 U/ml, the MIC (Streptococcus faecalis; strain 8 698) was 1.6 U/ml and the MIC (Streptococcus faecalis; strain 8 709) was 12.5 U/ml. The MIC (Streptococcus faecalis; strain 8 711) was 3 U/ml, the MIC (Staphylococcus aureus) was 200 U/ml and the MIC (Staphylococcus aureus; strain 1756 (BRL 1 756), 24 hours, 37°C) was 64-256 U/ml. The MIC (Staphylococcus aureus; strain P 209) was less than 0.8 U/ml and the MIC (Staphylococcus aureus; strain SG 511) was less than 0.8 U/ml.

Work on `CC(=O)N1CCN(C(=O)N[C@H](C(=O)N[C@@H]2C(=O)N3[C@@H]2SC(C)(C)[C@@H]3C(=O)O)c2ccccc2)C1=O` [Penicillin No. 6 (Table 3), Sodium L(+)-α-[(3-acetyl-imidazolidin-2-on-1-yl)-carbonylamino]-benzylpenicillin] yielded an MIC (Pseudomonas aeruginosa; Table 3, strain F 41) of 256 U/ml, an MIC (Pseudomonas aeruginosa; Table 3, strain Walter) of 128 U/ml and an MIC (Klebsiella-Aerobacter [1]; Table 3, strain 63) of 256 U/ml. For the same molecule, the MIC (Klebsiella-Aerobacter [1]; Table 3, strain K 10) was 128 U/ml, the MIC (Escherichia coli; Table 3, strain 14) was 8 U/ml and the MIC (Escherichia coli; Table 3, strain 183/58) was 16 U/ml. It also gave an MIC (Escherichia coli; Table 3, strain A 261) greater than 512 U/ml, an MIC (Escherichia coli; Table 3, strain C 165) of 32 U/ml and an MIC (Proteus morganii; Table 3, strain 932) of 64 U/ml. For the same molecule, the MIC (Proteus vulgaris; Table 3, strain 1017) was 32 U/ml, the MIC (Streptococcus faecalis; Table 3, ATCC 9790) was 128 U/ml and the MIC (Staphylococcus aureus; Table 3, strain 133) was 2 U/ml. The MIC (Staphylococcus aureus; Table 3, strain 1756E) was 128 U/ml.
